The values below are quoted from earlier work in patent US8198020B2, “Compositions and methods for enhancing phagocytosis or phagocyte activity” (Potentia Pharmaceuticals, Inc., priority 2003, dated 2012).

The test system of the data set is metastatic colorectal cancer. Particulars: patients with metastatic colorectal cancer; prolonged from 15.6.

In the case of “Avastin: recombinant monoclonal antibody that binds to VEGF”, the median survival is given as 18.3 months.
